Activity calls are given as the source filed them. The rule behind the calls is not given here.
How the values were obtained:
[1] = biological target: T1, Son of sevenless homolog 1 (Homo sapiens) (UniProt Q07889); assay: Inhibition of human recombinant SOS1 at 10 uM relative to control
T1 sequence (whole entry): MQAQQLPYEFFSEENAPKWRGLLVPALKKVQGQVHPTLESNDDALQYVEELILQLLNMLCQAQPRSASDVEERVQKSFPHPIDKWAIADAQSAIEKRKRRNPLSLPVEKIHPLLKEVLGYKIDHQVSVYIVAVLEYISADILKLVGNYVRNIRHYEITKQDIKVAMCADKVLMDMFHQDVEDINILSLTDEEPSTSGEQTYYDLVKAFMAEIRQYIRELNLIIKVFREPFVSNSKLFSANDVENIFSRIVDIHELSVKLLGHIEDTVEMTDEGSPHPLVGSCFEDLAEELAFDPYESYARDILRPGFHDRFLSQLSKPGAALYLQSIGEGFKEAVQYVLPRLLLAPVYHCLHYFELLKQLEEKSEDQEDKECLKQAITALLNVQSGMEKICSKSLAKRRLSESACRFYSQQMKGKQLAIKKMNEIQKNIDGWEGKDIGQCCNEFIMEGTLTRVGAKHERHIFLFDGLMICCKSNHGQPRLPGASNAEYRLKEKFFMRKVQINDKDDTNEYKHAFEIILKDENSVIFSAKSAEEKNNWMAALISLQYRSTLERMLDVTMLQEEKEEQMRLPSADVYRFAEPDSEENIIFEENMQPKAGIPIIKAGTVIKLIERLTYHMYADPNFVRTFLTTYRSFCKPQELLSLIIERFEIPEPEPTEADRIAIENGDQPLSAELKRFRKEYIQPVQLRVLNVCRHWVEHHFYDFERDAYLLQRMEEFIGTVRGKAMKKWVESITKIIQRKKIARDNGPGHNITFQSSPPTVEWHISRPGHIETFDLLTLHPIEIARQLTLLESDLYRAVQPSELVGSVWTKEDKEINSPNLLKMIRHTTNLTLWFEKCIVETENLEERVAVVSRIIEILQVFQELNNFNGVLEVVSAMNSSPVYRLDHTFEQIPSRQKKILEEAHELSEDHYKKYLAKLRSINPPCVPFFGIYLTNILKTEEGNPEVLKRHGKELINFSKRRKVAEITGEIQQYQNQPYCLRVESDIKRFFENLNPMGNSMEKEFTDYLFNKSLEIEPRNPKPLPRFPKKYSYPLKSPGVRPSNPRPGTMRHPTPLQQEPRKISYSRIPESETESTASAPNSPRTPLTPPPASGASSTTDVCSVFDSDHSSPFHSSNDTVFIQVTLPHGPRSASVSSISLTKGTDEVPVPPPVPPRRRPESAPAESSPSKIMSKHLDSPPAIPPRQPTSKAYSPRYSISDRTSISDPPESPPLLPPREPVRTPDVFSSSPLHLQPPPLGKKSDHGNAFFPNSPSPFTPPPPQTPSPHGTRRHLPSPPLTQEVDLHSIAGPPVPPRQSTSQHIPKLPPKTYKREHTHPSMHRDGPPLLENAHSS

[2] = biological target: Epidermal growth factor receptor (Homo sapiens, UniProt P00533); assay: Inhibition of EGFR (unknown origin) using ultra ULight GT peptide as substrate at 10 uM incubated for 2 hrs relative to control
Sequence of Epidermal growth factor receptor (P00533 whole entry): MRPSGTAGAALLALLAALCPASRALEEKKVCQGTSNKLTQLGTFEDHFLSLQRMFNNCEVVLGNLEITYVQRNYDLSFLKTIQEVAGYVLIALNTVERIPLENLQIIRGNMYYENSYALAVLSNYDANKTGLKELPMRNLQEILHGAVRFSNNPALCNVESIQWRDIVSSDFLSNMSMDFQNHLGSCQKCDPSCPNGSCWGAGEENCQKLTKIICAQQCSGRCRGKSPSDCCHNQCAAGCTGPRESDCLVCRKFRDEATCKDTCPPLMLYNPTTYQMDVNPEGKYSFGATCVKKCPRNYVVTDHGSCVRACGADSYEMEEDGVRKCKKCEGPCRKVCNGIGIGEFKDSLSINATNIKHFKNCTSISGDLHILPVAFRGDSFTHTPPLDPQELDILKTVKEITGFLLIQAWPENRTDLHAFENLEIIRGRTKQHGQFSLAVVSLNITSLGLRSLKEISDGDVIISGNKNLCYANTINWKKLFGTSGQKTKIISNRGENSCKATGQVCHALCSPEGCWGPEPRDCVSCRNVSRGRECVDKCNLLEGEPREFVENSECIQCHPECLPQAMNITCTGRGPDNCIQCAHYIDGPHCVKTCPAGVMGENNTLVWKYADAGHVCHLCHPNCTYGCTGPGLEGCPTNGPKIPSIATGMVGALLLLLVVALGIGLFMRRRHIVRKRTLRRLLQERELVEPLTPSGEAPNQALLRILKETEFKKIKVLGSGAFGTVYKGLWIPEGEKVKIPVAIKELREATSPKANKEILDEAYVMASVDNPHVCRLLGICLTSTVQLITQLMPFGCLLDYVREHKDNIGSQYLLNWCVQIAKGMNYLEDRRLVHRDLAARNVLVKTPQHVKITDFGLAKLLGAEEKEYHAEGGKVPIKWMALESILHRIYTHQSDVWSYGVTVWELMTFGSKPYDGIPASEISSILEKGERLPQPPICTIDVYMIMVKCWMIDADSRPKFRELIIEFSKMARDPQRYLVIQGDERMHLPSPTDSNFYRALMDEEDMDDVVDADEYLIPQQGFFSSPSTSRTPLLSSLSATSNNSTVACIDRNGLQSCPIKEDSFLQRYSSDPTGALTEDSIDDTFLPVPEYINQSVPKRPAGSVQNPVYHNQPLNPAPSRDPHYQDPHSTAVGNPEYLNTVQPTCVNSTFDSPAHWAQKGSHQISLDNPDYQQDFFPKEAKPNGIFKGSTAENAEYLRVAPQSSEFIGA

[3] = tested on: PC-3; assay: cells; assay type: functional, cell-based; conditions: Homo sapiens, PC-3, 72 h
Description: Antiproliferative activity against human PC-3 cells assessed as inhibition of cell growth incubated for 72 hrs by MTT assay

[4] = tested on: PC-3; assay: cells; conditions: Homo sapiens, PC-3, 72 h
Description: Synergistic antiproliferative activity against human PC-3 cells assessed as inhibition of cell growth incubated for 72 hrs in presence of gefitinib by MTT assay

Structure (SMILES)	inhibition [1]	inhibition [2]	IC50 [3]	IC50 [4]
Cc1cccc(Nc2ncnc3c2cnn3C)c1	inactive	73%	–	–
c1ccc2c(Nc3ccc4c(c3)OCO4)ncnc2c1	inactive	91%	–	–
COc1cc2ncnc(NCc3ccccc3C(F)(F)F)c2cc1OC	43%	90%	–	–
CCc1cc2c(Nc3ccc(OC)cc3)ncnc2s1	inactive	64%	–	–
CCc1cc2c(Nc3ccc(Cl)cc3)ncnc2s1	inactive	66%	–	–
COc1cc2nc(C)nc(N[C@H](C)c3cc(N)cc(C(F)(F)F)c3)c2cc1O[C@H]1CCOC1	–	–	8.75 µM	1.37 µM
COc1cc2ncnc(NCc3cccc(Cl)c3)c2cc1OC	56%	95%	–	–
Clc1cccc(Nc2ncnc3sc4c(c23)CCCC4)c1	inactive	74%	–	–
c1ccc(Nc2ncnc3sc4c(c23)CCC4)cc1	inactive	70%	–	–
Cc1sc2ncnc(Nc3ccc(F)cc3)c2c1C	inactive	62%	–	–
COc1cc2ncnc(NCc3ccc4c(c3)OCO4)c2cc1OC	41%	92%	–	–
Clc1ccc(CNc2ncnc3ccccc23)cc1	47%	84%	–	–
